Source: patent US20260285856A1, “A 1,5-DIHYDRO-4H-PYRROLO[3,2-C] PYRIDIN-4-ONE FOR USE IN THE TREATMENT OF CANCER” (ANTARES THERAPEUTICS, INC., priority 2023, published 2026)
pIC50: −log10 of the molar value.

Tests used:
Assay type in all cases: cell-based
EGFR WT = molecular target: T1, EGFR WT (Homo sapiens, UniProt P00533); assay: Ba/F3 cell viability (CellTiter-Glo), EGFR WT; details: Ba/F3 cells expressing EGFR WT, supplemental EGF, 72 hours, read-out: BaF3 WT IC50
T1 construct: expressed in transfected cells; host or cells: Ba/F3 (murine pro-B cells), retroviral transduction; maintained with supplemental EGF
T1 sequence (P00533 25-1210): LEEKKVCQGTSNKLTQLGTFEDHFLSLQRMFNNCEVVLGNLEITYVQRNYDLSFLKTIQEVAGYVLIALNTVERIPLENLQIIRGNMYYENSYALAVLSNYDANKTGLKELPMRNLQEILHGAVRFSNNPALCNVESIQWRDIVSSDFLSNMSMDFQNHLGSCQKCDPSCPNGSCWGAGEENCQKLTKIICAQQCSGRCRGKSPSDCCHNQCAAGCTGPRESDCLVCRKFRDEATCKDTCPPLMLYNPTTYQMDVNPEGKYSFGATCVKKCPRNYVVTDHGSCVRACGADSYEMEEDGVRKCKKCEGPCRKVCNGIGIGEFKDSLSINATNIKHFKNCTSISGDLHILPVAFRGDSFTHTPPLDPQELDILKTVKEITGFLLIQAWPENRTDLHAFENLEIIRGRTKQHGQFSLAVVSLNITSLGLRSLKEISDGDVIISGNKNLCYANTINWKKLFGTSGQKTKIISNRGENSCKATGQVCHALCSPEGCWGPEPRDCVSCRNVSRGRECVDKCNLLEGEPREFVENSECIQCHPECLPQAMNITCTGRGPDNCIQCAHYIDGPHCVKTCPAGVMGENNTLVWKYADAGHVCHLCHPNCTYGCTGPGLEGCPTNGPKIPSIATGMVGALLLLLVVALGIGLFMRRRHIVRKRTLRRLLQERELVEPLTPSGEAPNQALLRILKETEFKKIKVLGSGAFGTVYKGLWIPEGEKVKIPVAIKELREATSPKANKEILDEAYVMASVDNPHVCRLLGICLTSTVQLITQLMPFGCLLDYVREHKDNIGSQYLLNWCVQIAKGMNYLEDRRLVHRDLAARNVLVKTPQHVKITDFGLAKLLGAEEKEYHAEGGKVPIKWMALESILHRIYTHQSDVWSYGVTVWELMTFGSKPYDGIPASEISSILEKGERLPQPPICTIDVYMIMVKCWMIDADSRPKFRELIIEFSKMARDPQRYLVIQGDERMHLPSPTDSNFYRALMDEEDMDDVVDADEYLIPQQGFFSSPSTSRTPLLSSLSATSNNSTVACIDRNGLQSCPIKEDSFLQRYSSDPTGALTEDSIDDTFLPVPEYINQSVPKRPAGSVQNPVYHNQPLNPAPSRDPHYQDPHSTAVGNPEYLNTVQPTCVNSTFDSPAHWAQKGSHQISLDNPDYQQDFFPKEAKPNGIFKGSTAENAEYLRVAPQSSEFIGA
Description: (§1) Cell lines are generated by transducing Ba/F3 cells with retroviruses containing vectors with EGFR WT, EGFR exon 20 NPG Ins D770_N771, EGFR exon 20 ASV Ins V769_D770, EGFR exon 20 SVD Ins D770_N771, or EGFR exon 20 FQEA Ins A763_V764 genes and a puromycin selection marker. Transduced cells are selected with puromycin for 7 days and are then be transferred into culture media without Interleukin 3 (IL3). EGFR WT cells are maintained with supplemental EGF. Surviving cells are confirmed to express EGFR by Western blot and maintained as a pool. The IC50 data are included in Table 6.
(§2) • 1.1 Cells are harvested from flask into cell culture medium and the cell number counted. • 1.2 Cells are diluted with culture medium to the desired density and 40 NL of cell suspension is added into each well of 384-well cell culture plate and the seeding density is 600 cells/well.
(§3) • 2.1 Test compounds are dissolved to 10 mM in a DMSO stock solution. […]
(§4) • 3.1 Plates are removed from incubators and equilibrated at room temperature for 15 minutes. • 3.2 Thaw the CellTiter Glo reagents and allow to equilibrate to room temperature before the experiment. • 3.3 Add 40 μL of CellTiter-Glo reagent into each well (at 1:1 to culture medium). Then place the plates at room temperature for 30 min followed by reading on EnVision.
(§5) • 4.1 Inhibition activity is calculated following the formula below: […]

[1] = molecular target: T2, EGFR exon 20 SVD Ins D770_N771 (Homo sapiens, UniProt P00533, INS770SVD); assay: Ba/F3 cell viability (CellTiter-Glo), EGFR exon 20 SVD insertion; details: Ba/F3 cells expressing EGFR exon 20 SVD Ins D770_N771, 72 hours, read-out: BaF3 SVD IC50
T2 construct: expressed in transfected cells; host or cells: Ba/F3 (murine pro-B cells), retroviral transduction, puromycin selection, IL3 withdrawal
T2 sequence (P00533 with tags, fused parts or gaps INS770SVD): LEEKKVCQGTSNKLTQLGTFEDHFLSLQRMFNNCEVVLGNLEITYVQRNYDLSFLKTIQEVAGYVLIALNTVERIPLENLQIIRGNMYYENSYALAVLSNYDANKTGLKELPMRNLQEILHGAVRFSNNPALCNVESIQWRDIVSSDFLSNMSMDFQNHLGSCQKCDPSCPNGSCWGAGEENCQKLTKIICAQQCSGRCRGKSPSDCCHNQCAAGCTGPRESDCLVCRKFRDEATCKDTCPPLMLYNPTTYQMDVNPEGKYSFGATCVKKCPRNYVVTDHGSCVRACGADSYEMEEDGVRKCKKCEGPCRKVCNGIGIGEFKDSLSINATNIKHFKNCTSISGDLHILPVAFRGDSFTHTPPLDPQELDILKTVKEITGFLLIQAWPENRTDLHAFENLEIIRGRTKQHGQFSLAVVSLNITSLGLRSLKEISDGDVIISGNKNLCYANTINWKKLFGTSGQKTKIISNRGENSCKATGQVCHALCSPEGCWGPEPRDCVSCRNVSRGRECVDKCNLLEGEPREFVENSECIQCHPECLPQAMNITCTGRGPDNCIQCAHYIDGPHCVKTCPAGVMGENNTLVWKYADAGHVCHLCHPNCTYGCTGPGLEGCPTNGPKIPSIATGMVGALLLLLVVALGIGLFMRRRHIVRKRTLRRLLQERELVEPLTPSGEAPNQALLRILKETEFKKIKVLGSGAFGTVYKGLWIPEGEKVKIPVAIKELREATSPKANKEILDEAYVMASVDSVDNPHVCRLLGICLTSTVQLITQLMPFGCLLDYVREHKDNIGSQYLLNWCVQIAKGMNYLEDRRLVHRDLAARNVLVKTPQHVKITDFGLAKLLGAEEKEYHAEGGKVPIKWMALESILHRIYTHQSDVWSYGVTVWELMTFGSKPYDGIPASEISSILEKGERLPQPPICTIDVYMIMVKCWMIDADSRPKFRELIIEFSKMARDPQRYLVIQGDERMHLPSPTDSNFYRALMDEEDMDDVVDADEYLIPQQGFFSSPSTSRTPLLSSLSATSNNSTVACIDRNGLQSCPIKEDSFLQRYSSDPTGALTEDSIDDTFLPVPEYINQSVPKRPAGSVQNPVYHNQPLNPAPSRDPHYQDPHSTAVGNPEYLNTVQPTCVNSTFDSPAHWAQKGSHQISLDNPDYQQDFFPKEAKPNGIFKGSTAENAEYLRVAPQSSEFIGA
Description: as §1, §2, §3, §4, §5

[2] = molecular target: EGFR phosphorylation (pEGFR) in CUTO14 cells (Homo sapiens, UniProt P00533, INS769ASV); assay: EGFR phosphorylation (pEGFR) AlphaLISA in CUTO14 cells; details: 2 hours
Sequence of EGFR phosphorylation (pEGFR) in CUTO14 cells (P00533 with tags, fused parts or gaps INS769ASV): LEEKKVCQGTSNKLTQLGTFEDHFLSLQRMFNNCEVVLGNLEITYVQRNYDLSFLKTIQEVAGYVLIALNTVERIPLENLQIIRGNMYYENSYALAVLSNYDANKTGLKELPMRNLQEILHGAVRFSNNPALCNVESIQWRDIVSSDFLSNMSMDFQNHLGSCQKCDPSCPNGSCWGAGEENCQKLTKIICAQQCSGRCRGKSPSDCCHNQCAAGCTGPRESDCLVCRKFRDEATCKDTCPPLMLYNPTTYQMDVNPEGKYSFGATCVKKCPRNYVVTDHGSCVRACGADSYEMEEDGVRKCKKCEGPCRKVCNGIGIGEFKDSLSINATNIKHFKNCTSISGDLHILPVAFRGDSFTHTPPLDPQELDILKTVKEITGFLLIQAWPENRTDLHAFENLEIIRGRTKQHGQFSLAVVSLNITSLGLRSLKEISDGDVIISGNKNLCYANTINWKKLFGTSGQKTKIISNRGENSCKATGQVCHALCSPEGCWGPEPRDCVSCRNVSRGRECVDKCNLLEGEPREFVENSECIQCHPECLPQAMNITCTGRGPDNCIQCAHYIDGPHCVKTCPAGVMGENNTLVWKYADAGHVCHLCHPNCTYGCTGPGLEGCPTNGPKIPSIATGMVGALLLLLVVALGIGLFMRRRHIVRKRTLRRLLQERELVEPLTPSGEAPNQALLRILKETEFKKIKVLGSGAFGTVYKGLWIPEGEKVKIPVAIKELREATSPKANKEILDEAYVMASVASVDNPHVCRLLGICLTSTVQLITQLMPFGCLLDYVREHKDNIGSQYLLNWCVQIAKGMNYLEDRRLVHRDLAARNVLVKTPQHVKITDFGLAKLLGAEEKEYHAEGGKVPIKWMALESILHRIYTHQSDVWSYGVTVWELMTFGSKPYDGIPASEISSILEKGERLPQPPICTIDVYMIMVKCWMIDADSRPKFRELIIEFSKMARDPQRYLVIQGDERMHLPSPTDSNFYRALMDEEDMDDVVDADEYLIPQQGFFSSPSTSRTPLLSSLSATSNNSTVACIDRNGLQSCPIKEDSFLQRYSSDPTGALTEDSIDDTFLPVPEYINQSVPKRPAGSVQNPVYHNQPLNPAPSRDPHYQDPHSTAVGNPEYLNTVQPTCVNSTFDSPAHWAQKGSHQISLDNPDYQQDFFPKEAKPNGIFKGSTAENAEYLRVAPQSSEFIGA
Description: EGFR mutant Ba/F3 cells were generated by transduction with retrovirus containing vectors expressing EGFR exon 20 NPG Ins D770_N771, EGFR exon 20 ASV Ins V769_D770, or EGFR exon 20 SVD Ins D770_N771 genes along with a puromycin selection marker. Transduced cells are selected with puromycin for 7 days and are then be transferred into culture media without Interleukin 3 (IL3). Surviving cells are confirmed to express EGFR by Western blot and maintained as a pool. CUTO14 cells were obtained from Dr. Robert C. Doebele at the University of Colorado. The IC50 data are included in Table 6.
as §2, with “μL” for “NL”, “50K cells/well (Ba/F3) or 12.5K cells/well (CUTO14).” for “600 cells/well.”
• 2.1 Test compounds are dissolved to 10 mM in a DMSO stock solution. 45 μL of stock solution is transferred to a 384 polypropylene plate (pp-plate). […] Mix well on the shaker, seal and wrap in aluminum foil and incubate 1.5 hrs at room temperature in the dark • 3.5 Transfer 18.5 μL mixture to OptiPlate 384, and read using an Envision.

[3] = molecular target: T3, EGFR exon 20 ASV Ins V769_D770 (Homo sapiens, UniProt P00533, INS769ASV); assay: Ba/F3 cell viability (CellTiter-Glo), EGFR exon 20 ASV insertion; details: Ba/F3 cells expressing EGFR exon 20 ASV Ins V769_D770, 72 hours, read-out: BaF3 ASV IC50
T3 construct: expressed in transfected cells; host or cells: Ba/F3 (murine pro-B cells), retroviral transduction, puromycin selection, IL3 withdrawal
T3 sequence (P00533 with tags, fused parts or gaps INS769ASV): as above
Description: as §1, §2, §3, §4, §5

[4] = molecular target: T4, EGFR exon 20 NPG Ins D770_N771 (Homo sapiens, UniProt P00533, INS770NPG); assay: Ba/F3 cell viability (CellTiter-Glo), EGFR exon 20 NPG insertion; details: Ba/F3 cells expressing EGFR exon 20 NPG Ins D770_N771, 72 hours, read-out: BaF3 NPG IC50
T4 construct: expressed in transfected cells; host or cells: Ba/F3 (murine pro-B cells), retroviral transduction, puromycin selection, IL3 withdrawal
Description: as §1, §2, §3, §4, §5

[5] = tested on: EGFR mutant versus EGFR WT; assay: EGFR mutant potency and selectivity against EGFR WT, compared with the enantiomer; details: relative to its enantiomer (compound 635 in WO 2022/066734)
Description: as §1

**Q.** What does the source list for COc1c(Cl)cccc1Nc1c(-c2ccncc2C#C[C@@]2(C)CCCN2C(=O)/C=C/CN(C)C)[nH]c2cc[nH]c(=O)c12 [(I), 3-[(3-chloro-2-methoxyphenyl)amino]-2-(3-{2-[(2R)-1-[(2E)-4-(dimethylamino)but-2-enoyl]-2-methylpyrrolidin-2-yl]ethynyl}pyridin-4-yl)-1H,5H-pyrrolo[3,2-c]pyridin-4-one]?
**A.** pIC50 (EGFR WT): ≤ 6.00; pIC50 [1]: > 7.00; pIC50 [2]: > 7.00; pIC50 [3]: > 7.00; pIC50 [4]: > 7.00; EGFR mutant potency and selectivity against EGFR WT [5]: greater than the potency and selectivity exhibited by its enantiomer
